The record followed here is patent publication US9067943B2, “[1,2,3]triazolo[4,5-D]pyrimidine derivatives” (priority 2011, dated 2015).

Like-named read-outs stand apart in the source and are kept apart here.

Assay [1] deals with T1, human CB1 receptors (Homo sapiens, UniProt P21554).
T1 construct: expressed in transfected cells; host or cells: CHO cells
The experiment in a line: cAMP assay. The class given is cell-based. In outline: (§1)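 CHO cells expressing human CB1 or CB2 were preincubated 30 min at 30 °C in Krebs Ringer bicarbonate buffer with 1 mM IBMX, then exposed to compounds for 30 min at 30 °C. cAMP was measured by time-resolved FRET against a cAMP standard curve, and EC50 values were derived.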

For assay [2], the target named is T2, human CB2 receptors (Homo sapiens, UniProt P34972).
T2 construct: expressed in transfected cells; host or cells: CHO cells
The experiment in a line: cAMP assay. The class given is cell-based. In outline:
as §1

The mark [3] stands for this setting: functional cAMP assay, CHO cells expressing human CB2, read-out: human CB2 EC50.

T2 sequence (P34972 whole entry): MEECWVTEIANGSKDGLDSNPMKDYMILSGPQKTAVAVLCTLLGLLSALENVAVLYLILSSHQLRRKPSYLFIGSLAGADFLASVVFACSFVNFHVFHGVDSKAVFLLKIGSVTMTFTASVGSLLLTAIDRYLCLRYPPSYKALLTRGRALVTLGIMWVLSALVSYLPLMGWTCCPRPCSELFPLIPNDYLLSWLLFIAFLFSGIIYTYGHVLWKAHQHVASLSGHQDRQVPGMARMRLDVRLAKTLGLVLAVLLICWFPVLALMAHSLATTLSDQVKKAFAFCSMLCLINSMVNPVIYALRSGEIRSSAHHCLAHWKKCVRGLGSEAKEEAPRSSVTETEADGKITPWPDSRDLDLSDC
T1 sequence (P21554 whole entry): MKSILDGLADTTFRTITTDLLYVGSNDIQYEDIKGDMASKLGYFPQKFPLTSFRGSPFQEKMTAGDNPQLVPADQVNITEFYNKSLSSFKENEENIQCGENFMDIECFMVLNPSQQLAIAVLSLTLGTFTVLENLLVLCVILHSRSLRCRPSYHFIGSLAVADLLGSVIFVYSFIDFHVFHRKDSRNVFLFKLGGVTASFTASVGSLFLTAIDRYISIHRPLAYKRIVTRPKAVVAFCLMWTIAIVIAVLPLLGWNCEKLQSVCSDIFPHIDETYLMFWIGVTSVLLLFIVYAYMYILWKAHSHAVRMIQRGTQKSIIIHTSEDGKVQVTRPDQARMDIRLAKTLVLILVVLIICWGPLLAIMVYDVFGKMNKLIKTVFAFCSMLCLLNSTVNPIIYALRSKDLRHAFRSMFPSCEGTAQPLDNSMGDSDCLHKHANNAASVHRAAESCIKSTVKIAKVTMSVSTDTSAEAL

With `Cc1nonc1Cn1nc2nc(C(C)(C)C)nc(N3CC[C@H](O)[C@@H]3CO)c2n1` [Example 98, (2S,3S)-1-[5-tert-Butyl-2-(4-methyl-furazan-3-ylmethyl)-2H-[1,2,3]triazolo[4,5-d]pyrimidin-7-yl]-2-hydroxymethyl-pyrrolidin-3-ol], the EC50 in assay [1] was more than 10000 nM; in assay [2] (setting [3]) it was 211 nM.
`CC(C)(C)c1nc(N2CCC(F)(F)C2)c2nn(CCc3ccccc3Cl)nc2n1` [Example 41, 5-tert-Butyl-2-[2-(2-chloro-phenyl)-ethyl]-7-(3,3-difluoro-pyrrolidin-1-yl)-2H-[1,2,3]triazolo[4,5-d]pyrimidine]: the results for the EC50 in assay [1] and in assay [2] were 498 nM and 0.5 nM, respectively.
In the same order, the values of `CC(C)(C)c1nc(N2CCC(F)(F)C2)c2nn(Cc3c(Cl)ccc(F)c3Cl)nc2n1` [Example 33, 5-tert-Butyl-2-(2,6-dichloro-3-fluoro-benzyl)-7-(3,3-difluoro-pyrrolidin-1-yl)-2H-[1,2,3]triazolo[4,5-d]pyrimidine] are more than 10000 nM and 1.2 nM.
In the same order, the values of `CC(C)(C)c1nc(N2CCC(F)(F)C2)c2nn([C@H]3CCOC3)nc2n1` [Example 46, 5-tert-Butyl-7-(3,3-difluoro-pyrrolidin-1-yl)-2-(S)-tetrahydro-furan-3-yl-2H-[1,2,3]triazolo[4,5-d]pyrimidine] are more than 10000 nM and 2.8 nM.
On the same counts, the results for `Cc1c(Cn2nc3nc(C(C)(C)C)nc(N4CCC(F)(F)C4)c3n2)ccc[n+]1[O-]` [Example 84, 5-tert-Butyl-7-(3,3-difluoro-pyrrolidin-1-yl)-2-(2-methyl-1-oxy-pyridin-3-ylmethyl)-2H-[1,2,3]triazolo[4,5-d]pyrimidine] are more than 10000 nM and 94 nM.
For `Cc1nnc(Cn2nc3nc(C(C)(C)C)nc(N4CC[C@H](O)C4)c3n2)o1` [Example 87, (S)-1-[5-tert-Butyl-2-(5-methyl-[1,3,4]oxadiazol-2-ylmethyl)-2H-[1,2,3]triazolo[4,5-d]pyrimidin-7-yl]-pyrrolidin-3-ol], the EC50 in assay [1] was more than 10000 nM; in assay [2] (setting [3]), 258 nM.
Consider `CC(C)(C)c1nc(N2CCC(F)(F)C2)c2nn(Cc3ccc(F)cc3Cl)nc2n1` [Example 13, 5-tert-Butyl-2-(2-chloro-4-fluoro-benzyl)-7-(3,3-difluoro-pyrrolidin-1-yl)-2H-[1,2,3]triazolo[4,5-d]pyrimidine], for which the EC50 is more than 10000 nM in assay [1] and 1 nM in assay [2].
In the case of `Cc1noc(Cn2nc3nc(C(C)(C)C)nc(N4CC[C@](C)(O)C4)c3n2)n1` [Example 129-a, (S)-1-[5-tert-Butyl-2-(3-methyl-[1,2,4]oxadiazol-5-ylmethyl)-2H-[1,2,3]triazolo[4,5-d]pyrimidin-7-yl]-3-methyl-pyrrolidin-3-ol], the results for the EC50 in assay [1] and in assay [2] (setting [3]) were more than 10000 nM and 197 nM, respectively.
Regarding `C[C@H](Oc1nc(N2CCC(F)(F)C2)c2nn(Cc3ccccc3C(F)(F)F)nc2n1)C(F)(F)F` [Example 115, 7-(3,3-Difluoro-pyrrolidin-1-yl)-2-(2-trifluoromethyl-benzyl)-5-((S)-2,2,2-trifluoro-1-methyl-ethoxy)-2H-[1,2,3]triazolo[4,5-d]pyrimidine], the EC50 in assay [1] was more than 10000 nM; in assay [2] it was 31.2 nM.
For `Cn1nnnc1Cn1nc2nc(C(C)(C)C)nc(N3CCC(O)C3)c2n1` (stereo not drawn) [Example 114, 1-[5-tert-Butyl-2-(1-methyl-1H-tetrazol-5-ylmethyl)-2H-[1,2,3]triazolo[4,5-d]pyrimidin-7-yl]-pyrrolidin-3-ol], the EC50 was more than 10000 nM in assay [1] and 164 nM in assay [2].
On the same counts, the results for `CC(C)(C)c1nc(N2CCC(F)(F)C2)c2nn(Cc3ccccc3C(F)(F)F)nc2n1` [Example 22, 5-tert-Butyl-7-(3,3-difluoro-pyrrolidin-1-yl)-2-(2-trifluoromethyl-benzyl)-2H-[1,2,3]triazolo[4,5-d]pyrimidine] are more than 10000 nM and 0.2 nM.
On the same counts, the results for `CC1(Cn2nc3nc(C(C)(C)C)nc(N4CCC(F)(F)C4)c3n2)COC1` [Example 51, 5-tert-Butyl-7-(3,3-difluoro-pyrrolidin-1-yl)-2-(3-methyl-oxetan-3-ylmethyl)-2H-[1,2,3]triazolo[4,5-d]pyrimidine] are more than 10000 nM and 0.9 nM.
In the same order, the values of `CC(C)(C)c1nc(N2CC[C@H](O)C2)c2nn(Cc3ccccc3C(F)(F)F)nc2n1` [Example 79, (S)-1-[5-tert-Butyl-2-(2-trifluoromethyl-benzyl)-2H-[1,2,3]triazolo[4,5-d]pyrimidin-7-yl]-pyrrolidin-3-ol] are more than 10000 nM and 0.4 nM.
As for `CC(C)(C)c1nc(N2CCC(F)(F)C2)c2nn(Cc3ccc(Cl)cc3Cl)nc2n1` [Example 10, 5-tert-Butyl-2-(2,4-dichloro-benzyl)-7-(3,3-difluoro-pyrrolidin-1-yl)-2H-[1,2,3]triazolo[4,5-d]pyrimidine], the values for the concentration for a half-maximal effect (EC50) in assay [1] and in assay [2] were more than 10000 nM and 4.1 nM, respectively.
As to `C[C@H](Oc1nc(N2CCC(F)(F)C2)c2nn(Cc3ncccc3Cl)nc2n1)C(F)(F)F` [Example 117, 2-(3-Chloro-pyridin-2-ylmethyl)-7-(3,3-difluoro-pyrrolidin-1-yl)-5-((S)-2,2,2-trifluoro-1-methyl-ethoxy)-2H-[1,2,3]triazolo[4,5-d]pyrimidine], the EC50 is more than 10000 nM in assay [1] and 21.2 nM in assay [2].
In the same order, the values of `Cc1nnc(Cn2nc3nc(C(C)(C)C)nc(N4CC[C@](C)(O)C4)c3n2)o1` [Example 128-a, (S)-1-[5-tert-Butyl-2-(5-methyl-[1,3,4]oxadiazol-2-ylmethyl)-2H-[1,2,3]triazolo[4,5-d]pyrimidin-7-yl]-3-methyl-pyrrolidin-3-ol] are more than 10000 nM and 70.2 nM.
On to `CC(C)(C)c1nc(N2CC[C@](C)(O)C2)c2nn(Cc3ncccc3Cl)nc2n1` [Example 127-a, (S)-1-[5-tert-Butyl-2-(3-chloro-pyridin-2-ylmethyl)-2H-[1,2,3]triazolo[4,5-d]pyrimidin-7-yl]-3-methyl-pyrrolidin-3-ol], for which the EC50 in assay [1] was 757 nM; in assay [2] it was 5.1 nM.
In the same order, the values of `CC(C)(C)c1nc(N2CCC(F)(F)C2)c2nn(Cc3cc(Cl)ccc3Cl)nc2n1` [Example 11, 5-tert-Butyl-2-(2,5-dichloro-benzyl)-7-(3,3-difluoro-pyrrolidin-1-yl)-2H-[1,2,3]triazolo[4,5-d]pyrimidine] are more than 10000 nM and 1.2 nM.
For `CC(C)(C)c1nc(N2CC[C@H](O)C2)c2nn(Cc3nnnn3C3CC3)nc2n1` [Example 94, (S)-1-[5-tert-Butyl-2-(1-cyclopropyl-1H-tetrazol-5-ylmethyl)-2H-[1,2,3]triazolo[4,5-d]pyrimidin-7-yl]-pyrrolidin-3-ol], the 50% effective concentration (EC50) in assay [1] is more than 10000 nM; in assay [2] (setting [3]) it was 251 nM.
As to `CC(C)(C)c1nc(N2CC3(COC3)C2)c2nn(Cc3ccccc3S(C)(=O)=O)nc2n1` [Example 107, 5-tert-Butyl-2-(2-methanesulfonyl-benzyl)-7-(2-oxa-6-aza-spiro[3.3]hept-6-yl)-2H-[1,2,3]triazolo[4,5-d]pyrimidine], the EC50 in assay [1] was more than 10000 nM; in assay [2], 8.4 nM.
In the same order, the values of `CC(C)(C)c1nc(N2CCC(F)(F)C2)c2nn(Cc3c(Cl)ccc(Cl)c3Cl)nc2n1` [Example 55, 5-tert-Butyl-7-(3,3-difluoro-pyrrolidin-1-yl)-2-(2,3,6-trichloro-benzyl)-2H-[1,2,3]triazolo[4,5-d]pyrimidine] are more than 10000 nM and 8.7 nM.
